From patent US20240315992A1, “AMINOXY ACID-BASED ANTIBACTERIAL COMPOUNDS AND METHODS THEREOF” (The University of Hong Kong, priority 2023, published 2024)
≈ marks a conversion by molar mass, not a printed value.

Assays:
Type in all cases: cell-based
[1] = test system: MSSA ATCC 29213; assay: MIC by CLSI broth micro-dilution, MSSA ATCC 29213; conditions: Staphylococcus aureus, read-out: Minimum inhibitory concentration
Method: (§1) Aminoxy acids were synthesized by the standard peptide coupling procedures. Minimum inhibitory concentration was determined using CLSI broth micro-dilution method in 96-wells microtitre plates. Minimum inhibitory concentration is defined as the lowest concentration of the compound that inhibits visible growth of the bacteria. All experiments were performed three times. 24 compounds including aminoxy acid monomers and dipeptides have been identified to show toxicity against multidrug resistant Staphylococcus aureus Mu3 and summarized in Table 1. The minimum inhibitory concentration of compound 8 and compound 35 on other gram-positive bacteria was also evaluated and summarized in Table 2. […] As shown in FIGS. 3A-3B there are no observable hemolysis for compound 8 and compound 35 towards human red blood cell.
(§2) Bacteria were streaked from the glycerol stock into BHI agar and were incubated overnight. Single colony was picked for the overnight culture in cation-adjusted Mueller Hinton broth (CAMH), LB or BHI. The overnight culture was sub-cultured and regrew to exponential phase for the experiment.
(§3) MIC was determined by CLSI broth micro-dilution method in 96-wells microtitre plates. […] Optical density was recorded by DTX 880 multimode detector (Beckman Coulter, California, US). […]

[2] = test system: MSSA ATCC 6538; assay: MIC by CLSI broth micro-dilution, MSSA ATCC 6538; conditions: Staphylococcus aureus, read-out: Minimum inhibitory concentration
Method: as §1, §2, §3

[3] = test system: MRSA-USA300; assay: MIC by CLSI broth micro-dilution, MRSA-USA300; conditions: Staphylococcus aureus, read-out: Minimum inhibitory concentration
Method: as §1, §2, §3

[4] = test system: MRSA-USA300LAC; assay: MIC by CLSI broth micro-dilution, MRSA-USA300LAC; conditions: Staphylococcus aureus, read-out: Minimum inhibitory concentration
Method: as §1, §2, §3

[5] = test system: L. monocytogenes clinical strain; assay: MIC by CLSI broth micro-dilution, L. monocytogenes; conditions: Listeria monocytogenes, BHI medium, read-out: Minimum inhibitory concentration
Method: as §1, §2, §3

[6] = test system: Staphylococcus aureus ATCC 29213 persister; assay: Killing of Staphylococcus aureus persister; conditions: 10×MIC, persisters enriched with ciprofloxacin
From the text: FIG. 4 is a line graph showing the killing kinetics of the compound 8 and compound 35 towards Staphylococcus aureus persister compared to the conventional antibiotics. […] Data were representative of 3 independent experiments±S.D.
Persisters are the phenotypic variants of the normal bacteria with reduced metabolism. They highly tolerate to the conventional […]. Persisters was enriched by the addition of 100-fold minimum inhibitory concentration of bactericidal antibiotics ciprofloxacin to the stationary phase bacteria. After 24 hours' culture, ciprofloxacin was removed. Persisters were treated with compound 8, compound 35 or different conventional antibiotics.
S. aureus ATCC 29213 cells were sub-cultured from an overnight culture in CAMH 1:100 for 24 hours at 37° C. with 250 rpm shaking speed. Persisters were prepared by addition of ciprofloxacin hydrochloride (25 μg/mL, 100×MIC in Staphylococcus aureus ATCC 29213) and cultured for 24 hours at 37° C. with 250 rpm shaking speed. Persisters were washed by PBS (12,000×g, 3 minutes) and resuspended in PBS+1% CAMH medium (same volume as original culture). 1 mL portions were aliquoted into fresh culture tubes, and different antibiotics or DMSO (1% maximum concentration) were added, followed by incubation at 37° C. with 250 rpm shaking speed. […]

[7] = test system: pre-established Staphylococcus aureus ATCC 35556 biofilm; assay: Reduction of established biofilm (crystal violet); conditions: 24 hours pre-established biofilm treated 24 hours, concentration dependent
Method: 24 hours pre-established Staphylococcus. aureus ATCC 35556 biofilm was treated with various concentrations of compound 8, compound 35 or 1% DMSO as negative control for 24 hours. Biofilm was quantified using crystal violet. The data were normalized to DMSO (100% biofilm) and represent average values±S.D. (n=9 per group). Statistical analysis was performed by ANOVA with Dunnett's post-test to calculate p-values adjusted for multiple comparisons with DMSO as control condition (*p<0.05; **p<0.01; ***p<0.001).
Briefly, overnight cultures of Staphylococcus aureus ATCC 35556 in TSB were diluted 1:100 and regrow for 2.5 hours at 37° C., 250 rpm. The bacteria were diluted 1:100 into fresh TSB and 200 μL bacteria in TSB was added to each well of a flat-bottom 96-well plate (200 μL/well). The plate was incubated at 37° C. for 24 hours to establish biofilms. After 24 hours, the supernatant was removed and washed by PBS (200 μL) 2 times. Premixed solution of TSB and compound was prepared in a separate 96-well-plate (200 μL/well; two-folded serial dilutions; final DMSO concentration of maximum 1%). 200 μL compound in TSB was transferred to the plates with established biofilms. […] Following a 1:4 dilution step (33% acetic acid), the optical density was measured at 595 nm by Beckman Coulter DTX 880 Multimode Detector. […]

Compound	MIC [1] [µM]	MIC [2] [µM]	MIC [3] [µM]	MIC [4] [µM]	MIC [5] [µM]	bactericidal effect on Staphylococcus aureus persister [6]	established Staphylococcus aureus biofilm [7]
CC(C)C[C@H](ONC(=O)[C@@H](COCc1ccccc1)ONC(=O)c1cc(C(F)(F)F)cc(C(F)(F)F)c1)C(=O)Nc1ccccc1 [Compound 8]	3.13 (≈ 2.05 µg/mL)	3.13 (≈ 2.05 µg/mL)	3.13 (≈ 2.05 µg/mL)	3.13 (≈ 2.05 µg/mL)	6.25 (≈ 4.1 µg/mL)	can eradicate the Staphylococcus aureus persister	significantly reduced
CC(C)C[C@H](ONC(=O)[C@@H](COCc1ccccc1)ONC(=O)c1cc(C(F)(F)F)cc(C(F)(F)F)c1)C(=O)Nc1ccc2c(c1)OC(F)(F)O2 [Compound 35]	1.56 (≈ 1.15 µg/mL)	1.56 (≈ 1.15 µg/mL)	3.13 (≈ 2.3 µg/mL)	1.56 (≈ 1.15 µg/mL)	0.78 (≈ 0.574 µg/mL)	can eradicate the Staphylococcus aureus persister	significantly reduced
